Results published in US10696678B2, “Kinase inhibitor, and preparing method and pharmaceutical use thereof” (GAN & LEE PHARMACEUTICALS, priority 2015, dated 2020).
Read-outs that look alike come from different tables or passages of the source.

Experiments:
[1] = tested on: human breast cancer cell line MDB-MA-231; experiment: Proliferation inhibition assay on human breast cancer cell line MDA-MB-231 (DAPI staining, In Cell Analyzer); format: cell-based; details: MDA-MB-231, read-out: IC50 for inhibition of proliferation of human breast cancer cell line MDB-MA-231, 72 h incubation
Protocol: Experimental Preparation:
1. MDA-MB-231 cells were seeded at 4000 cells/100 ul/well to a 96-well plate with black transparent bottom, and cultured overnight at 37° C.;
3. Fixation: the cell plate was taken, medium was removed, and 50 μl of 4% paraformaldehyde was added to each well and fixed 10 min;
4.50 μl 0.1 M glycine was added to neutralize for 10 min;
6. Permeabilization: 50 ul of 0.2% TritonX-100 was added to each well and permeabilized at room temperature for 10 min;
8.5 mg/mL DAPI stock solution was diluted at 1:5000 (final concentration 1 μg/ml) and the cells were stained at room temperature for 20 min.
10. The plate was scanned and analyzed on In cell analyser.

CDK4/D3 = CDK4/D3 (Homo sapiens (Human), UniProt P11802); experiment: CDKs inhibition assay (ADP-Glo Kinase Assay), CDK4; details: for selectivity for CDK4/6 (over CDK1) compared with the control compound LY2835219: in words; for Ratio IC50 (CDK4)/IC50 (CDK1): smaller value = better selectivity for CDK4
Protocol: (2) Preparation of Test Compound:
(§4) a. Test compounds at a certain concentration were taken respectively, and diluted with kinase reaction buffer I to compound solutions with a final concentration of 50 μM;
(§5) 4. Preparation of reaction substrate and ATP mixed solution:
a. Preparation of ATP solution:
(§6) 200 μl of 0.1 mM ATP solution: 2 μl of 10 mM ATP was added into 198 μl kinase reaction buffer I;
(§7) 300 μl of 50 μl M ATP solution: 150 μl kinase reaction buffer I was added into 150 μl of above-mentioned 0.1 mM ATP solution;
(§8) b. Preparation of 300 μl reaction substrate solution:
(§9) 150 μl of 1 μg/μl reaction substrate stock solution was added into 150 μl kinase reaction buffer I and uniformly mixed;
(§10) c. Above-mentioned a/b solutions were mixed to obtain mixed solutions respectively.
(§11) 2 μl compound solution at each concentration was added into a 384-well plate respectively, and centrifuged for 3 min;
(§12) 4 μl kinase solution was added into each well, centrifuged at 5000 rpm for 10 min at 18° C., and shaked well for 10 min on a shaker;
(§13) 4 μl substrate and ATP mixed solution were added into each well, centrifuged at 5000 rpm for 10 min at 18° C., and shaked well for 90 min on a shaker at 37° C.;
(§14) The 384 well plate was removed and allow to achieve room temperature;
(§15) 10 μl ADP-Glo reagent was added into each well, centrifuged at 5000 rpm for 10 min at 18° C., and shaked well for 40 min on a shaker at 25° C. to terminate the reaction;
(§16) 20 μl kinase assay reagent was added into each well, centrifuged at 5000 rpm for 10 min at 18° C., and shaked well for 30 min on a shaker at 25° C.;
(§17) Fluorescence values were read by M1000pro microplate reader.
(§18) The inhibition rate of each compound at each concentration point was calculated according to the following equation, and IC50 value was calculated by curve fitting using GraphPad Prism 5 software.

CDK1/A2 = CDK1/A2 (Homo sapiens (Human), UniProt P06493); experiment: CDKs inhibition assay (ADP-Glo Kinase Assay), CDK1; details: read-out: IC50 (nM) CDK1/A2
Protocol: (2) Preparation of Test Compound:
as §4, §5
a. Preparation of ATP solution:
as §6, §7, §8, §9, §10, §11, §12, §13, §14, §15, §16, §17, §18

CDK6/D3 = CDK6/D3 (Homo sapiens (Human), UniProt Q00534); experiment: CDKs inhibition assay (ADP-Glo Kinase Assay), CDK6; details: for Ratio IC50 (CDK6)/IC50 (CDK1): smaller value = better selectivity for CDK6
Protocol: (2) Preparation of Test Compound:
as §4, §5
a. Preparation of ATP solution:
as §6, §7, §8, §9, §10, §11, §12, §13, §14, §15, §16, §17, §18

[2] = Pharmacokinetic study in rats (intragastric); format: in vivo, SD rats; details: 5 mg/kg
Protocol: (§1) 2.3 Preparation of Test Compounds
(§2) 2.4 Test Drug Administration
(§3) 3. Experimental Operation
Whole blood was anticoagulated with EDTA-K2, centrifuged to remove the supernatant, and cryopreserved at −20° C. until being analyzed.

[3] = Pharmacokinetic study in mice (intragastric and intravenous); format: in vivo, ICR mice; details: for AUC: read-out: Area under the curve AUC; for MRT: read-out: Retention time MRT
Protocol: as §1
An appropriate amount of sample was weighed, then 0.1% hydroxyethyl cellulose/0.5% Tween 80 was added to final volume to obtain a solution of 0.5 mg/ml for intragastrical administration.
as §2
Male ICR mice, 3 for each test compound, were intragastrically administered test drugs at a dose of 5 mg/kg and a drug volume of 10 ml/kg after an overnight fast.
Male ICR mice, 3 for each test compound, were administered by intravenous injection test drugs at a dose of 2 mg/kg and a drug volume of 10 ml/kg after an overnight fast.
as §3
The carotid artery of the animal was catheterized and blood sample was removed prior to dosing and at 0.25, 0.5, 1, 2, 4, 8, 12 and 24 hours after dosing for intragastrical administration group. Whole blood was anticoagulated with EDTA-K2, centrifuged to remove the supernatant, and cryopreserved at −20° C. until being analyzed. The carotid artery of the animal was catheterized and blood sample was removed prior to dosing and at 0.083, 0.25, 0.5, 1, 2, 4, 8, 12 and 24 hours after dosing for i.v. administration group. Plasma sample treatment was the same as intragastrical administration group.

[4] = male, ICR, mouse, plasma, iv, i.v. (2 mg/kg)
[5] = male, ICR, mouse, plasma, po, i.g. (5 mg/kg)

IC50 [1] [nM] | IC50 (CDK4/D3) [nM] | Ratio IC50 (CDK4)/IC50 (CDK1) (CDK4/D3) | IC50 (CDK1/A2) [nM] | IC50 (CDK6/D3) [nM] | Ratio IC50 (CDK6)/IC50 (CDK1) (CDK6/D3) | Area under the curve AUC [2] [ng·h/mL] | Apparent volume of distribution Vz/F ([3]; i.v. (2 mg/kg)) [L/kg] | AUC [3, 4] [ng·h/mL] | MRT [3, 4] [h] | bioavailability ([3]; male, ICR, mouse, plasma, oral, i.g. (5 mg/kg) vs i.v. (2 mg/kg), read-out: Bioavailability F) [%] | Vd/F ([3]; male, ICR, mouse, plasma, po, i.g. (5 mg/kg), read-out: Apparent volume of distribution Vz/F) [L/kg] | AUC [3, 5] [ng·h/mL] | MRT [3, 5] [h] | Compound | selectivity for CDK4/6 (over CDK1) compared with the control compound LY2835219 (CDK4/D3)
58 | 13 | 0.018 | 732 | 0.3 | 0.0004 |  |  |  |  |  |  |  |  | CN1CCN(c2ccc(Nc3ncc(F)c(-c4cc(F)c5nc6n(c5c4)C(C)(C)CC6)n3)nc2)CC1 [Example 43, 5-Fluoro-4-(5-fluoro-1,1-dimethyl-2,3-dihydro-1H-benzo[d]pyrrolo[1,2-a]imidazol-7-yl)-N-(5-(4-methylpiperazin-1-yl)pyridin-2-yl)pyrimidin-2-amine] | better selectivity for CDK4/6 than the control compound
174 | 0.28 | 0.003 | 94.8 | 0.6 | 0.006 |  |  |  |  |  |  |  |  | CC1CN(c2ccc(Nc3ncc(F)c(-c4cc(F)c5nc6n(c5c4)C(C)(C)CC6)n3)nc2)CC(C)N1 (stereo not shown) [Example 74, N-(5-(3,5-Dimethylpiperazin-1-yl)pyridin-2-yl)-5-fluoro-4-(5-fluoro-1,1-dimethyl-2,3-dihydro-1H-benzo[d]pyrrolo[1,2-a]imidazol-7-yl)pyrimidin-2-amine] | better selectivity for CDK4/6 than the control compound
 |  |  |  |  |  | 3275 ± 731 | 7.21 ± 1.08 | 674 ± 82.1 | 1.64 ± 0.17 | 45.1 | 16.1 ± 0.963 | 756 ± 34 | 3.08 ± 0.02 | CCN1CCN(Cc2ccc(Nc3ncc(F)c(-c4cc(F)c5nc(C)n(C(C)C)c5c4)n3)nc2)CC1 [LY2835219] | 
